Assay results published in BindingDB's records for doi:10.1021/jm021073r (University of Bath, 2003).

Molecular target: Kappa-type opioid receptor (Homo sapiens, UniProt P41145)
Assay: Stimulation of U-69,593 binding at human recombinant Opioid receptor kappa 1 transfected into CHO cells.

Kappa-type opioid receptor, sequence (P41145 whole entry): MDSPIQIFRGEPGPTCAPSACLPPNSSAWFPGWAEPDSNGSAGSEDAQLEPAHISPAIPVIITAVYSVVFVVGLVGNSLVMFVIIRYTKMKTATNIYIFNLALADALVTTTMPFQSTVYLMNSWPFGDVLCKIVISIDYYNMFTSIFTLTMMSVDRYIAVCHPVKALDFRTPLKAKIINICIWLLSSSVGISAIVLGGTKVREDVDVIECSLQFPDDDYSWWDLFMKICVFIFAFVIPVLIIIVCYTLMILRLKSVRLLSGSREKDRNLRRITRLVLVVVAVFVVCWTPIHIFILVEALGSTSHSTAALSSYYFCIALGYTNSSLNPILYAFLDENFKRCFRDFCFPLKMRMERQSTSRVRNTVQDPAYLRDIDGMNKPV

Structure (SMILES)	EC50 [nM]
CN1CC[C@]23c4c5ccc(O)c4O[C@H]2c2[nH]c4ccccc4c2C[C@@]3(N)C1C5	87
CCN[C@@]12Cc3c([nH]c4ccccc34)[C@@H]3Oc4c(O)ccc5c4[C@@]31CCN(C)C2C5	98
CCCCCCC(=O)N[C@@]12Cc3c([nH]c4ccccc34)[C@@H]3Oc4c(O)ccc5c4[C@@]31CCN(C)C2C5	57
CN1CC[C@]23c4c5ccc(O)c4O[C@H]2c2[nH]c4ccccc4c2C[C@@]3(NC(=O)CCc2ccccc2)C1C5	9.5
